Source: patent publication US20090257988A1, “METHODS AND COMPOSITIONS FOR ACCELERATING THE GENERATION OF REGULATORY T CELLS EX VIVO” (USC Stevens, Hughes Center, priority 2008, published 2009)
“Also recorded” adds a separate entry of the source.

How the values were obtained:
[1] = tested on: memory CD4+ cells (CD45RO+); test: Stimulation of memory CD4+ cells (CD45RO+) with or without azacytidine (Example 7); type: cell-based
Procedure: In addition to naïve CD4+ cells (also referred to as CD45RA+ cells), memory CD4+ cells (CD45RO+) are stimulated and assessed for the effect of azacytidine and azacytidine+retinoic acid on their phenotypic properties. These memory CD4+ cells represent a resting but previously activated population. The cells are stimulated with anti-CD3/anti-CD28 beads (at 1 in 10) with or without azacytidine (1 μM), azacytidine combined with all-trans retinoic acid and also with or without TGF-β (5 ng/ml). After 6 days, the cells are depleted of stimulating beads and assayed for FOXP3 expression, suppressor activity and proliferative activity. Greater than 50% of the stimulated cells express FOXP3. Enhanced FOXP3 expression in cells cultured in medium alone may be due to TGF-β provided by non-T cells in the culture.
Remaining cells are restimulated with anti-CD3/anti-CD28 (at 1 in 10) with or without fresh azacytidine and/or azacytidine plus retinoic acid, such that there is a group from each CD4+ subset that is exposed to azacytidine/azacytidine+retinoic acid for the first time. After a further 6 days, the cells are assayed again for FOXP3 expression, suppressor activity and proliferative activity.

CD4+ cells = test: Proliferation of cultured CD4+ cells upon re-stimulation; type: cell-based, human; settings: after 6 days of culture
Description: A further phenotypic property of nTregs is poor proliferative responsiveness, which is often accompanied by lowered production of certain pro-proliferation cytokines, such as IL-2. Other cytokines, such as IL-4, IFNγ and TFN-α are also associated with proliferation, although they are generally produced in low levels even in proliferating cells. Proliferation response can be measured using methods known in the art, such as thymidine uptake assays and assays of carboxyfluorescein succinimidyl ester (CFSE) dilution.
As discussed above, one phenotypic property of nTregs is poor proliferative responsiveness. Human naïve CD4+ cells stimulated with IL-2 and TGF-β become FOXP3+, but are only partially differentiated suppressor cells. […] Since the only source of pro-proliferative cytokines are the iTregs themselves, the lack of proliferation by azacytidine-treated cells is consistent with poor cytokine production, which is a distinguishing characteristic of nTregs.

naïve CD4+ cells [2] = test: FOXP3 expression by flow cytometry in naïve CD4+ cells stimulated with anti-CD3/CD28 beads; type: cell-based, human
Description: FIG. 1 is a typical example of FOXP3 expression at day 6 of cultures of non-regulatory T cells. In the experiments represented in this figure, naïve CD4+ cells were stimulated with 3/28 beads (1 bead per 10 T cells) with (right panel) or without (left panel) TGF-β for 6 days.
This inhibitor blocks TGF-β type I receptor signaling. The figures in FIG. 2A provide data from flow cytometry analysis of stimulated CD4+ cells. Naïve CD4+ cells were stimulated with anti-CD3/CD28 beads for 5 or 6 days in medium only (left-most panel), in the presence of 5 ng/ml TGF-β (middle panel) or with 1 μM azacytidine (right-most panel). The graphs also show data from cells stimulated with and without ALK5i (10 μM).
FIG. 3A provides flow cytometry data from naïve CD4 cells stimulated with anti-CD3/CD28 beads for 5 or 6 days in (in order of the panels from left to right) medium alone, in medium containing TGF-β, in medium containing azacytidine, and in medium containing azacytidine and TGF-β. The arrows indicate the […] after stimulation with anti-CD3/anti-CD28.
Naïve CD4+ cells were stimulated with anti-CD3/28 beads as described above. […] FOXP3 expression among CD4+CD25+ cells was determined by flow cytometry. FIG. 5A is a bar graph showing the indicated mean±SEM for 5 independent experiments. FIG. 5B is representative of experiments in 0.1 μM ATRA.
The traces identified with arrows indicate data from cells expressing FOXP3 after stimulation, and percentage of FOXP3 expressing cells is indicated in each figure.

responder T cells = test: Suppressive activity of stimulated CD4+ cells on proliferation of CFSE-labeled responder T cells; type: cell-based, human; settings: FIG. 4; cells stimulated with vs without azacytidine; ratio 1:10 to responder cells, soluble anti-CD3, 3 days
Procedure: Each population of stimulated cells was assayed for suppressive activity by culturing the cells with responder T cells labeled with carbofluorescein diacetate succinimydil ester (CFSE) at a ratio of 1:10. The cells were stimulated with soluble anti-CD3 for 3 days and proliferation of the responder cells was measured by dilution of CFSE.
The induced Tregs were added to T respond cells (1:4 ratio) and suppressive activity was calculated.

naïve CD4+ cells [3] = test: Membrane-bound TGF-β staining after re-stimulation of naïve CD4+ cells; type: cell-based, human; settings: FIG. 8; 6 days with agents, re-stimulated with anti-CD3/28 beads
Description: Naïve CD4+ cells were stimulated with agents indicated for 6 days and re-stimulated with anti-CD3/28 beads and stained with fluorochrome-conjugated anti-TGF-β for membrane-bound TGF-β.

CD4+GFP-cells = test: FOXP3 induction in CD4+GFP- cells of GFP-FOXP3 mice (Example 10); type: cell-based; settings: CD4+GFP- cells sorted from GFP-FOXP3 mice
Procedure: This assessment utilizes mice engineered to express a GFP-FOXP3 fusion protein. CD4+GFP-cells isolated by cell sorting are stimulated in the presence or absence of regulatory compositions containing azacytidine and regulatory compositions containing azacytidine and retinoic acid. Stimulation is also tested with such regulatory compositions with and without TGF-β. […] Purified populations of FOXP3+ cells are isolated by cell sorting. As a positive control, nTregs are also sorted from fresh spleens and lymph nodes. Both iTregs and nTregs cells (5×10^6) are injected into congenic CD45.1-mice. For the azacytidine-generated iTreg there are enough cells to have three to four mice per group. There are at least two mice per group for the nTregs. In some experiments, nTregs are expanded in culture to obtain sufficient numbers of cells.

naïve CD4+ cells [4] = test: Surface marker phenotype (CD45RO, CD103, CD127) of stimulated naïve CD4+ cells; type: cell-based, human; settings: FIG. 7; after 6 days of stimulation
Description: Naïve T cells display the CD45RA+ marker and lack CD45RO. […] Finally, nTregs characteristically express the αEβ7 integrin (CD103) induced by TGF-β.

[5] = azacytidine 1 μM, after repeated stimulation

2′-Deoxy-5-azacytidine; 5-Aza-2′-deoxycytidine
FOXP3 expression vs total T cells stimulated without azacytidine [1, 5]: markedly greater
suppressive activity vs total T cells stimulated without azacytidine [1, 5]: markedly greater
proliferation upon re-stimulation (CD4+ cells): fail to proliferate upon re-stimulation
FOXP3 expression (percentage of FOXP3 positive cells) (naïve CD4+ cells [2]; FIG. 2A, anti-CD3/CD28 beads 5 or 6 days, 1 μM azacytidine, no exogenous TGF-β, vs medium only): enhances FOXP3 expression to a similar extent as the enhancement seen with TGF-β; also recorded: markedly augments the percentage of FOXP3 positive cells
suppressive activity (responder T cells): significantly more suppressive; also recorded: develop suppressive activity

CC1=C(/C=C/C(C)=C/C=C/C(C)=C/C(=O)O)C(C)(C)CCC1 [retinoic acid, all-trans retinoic acid]
FOXP3 expression in stimulated CD4+ cells (naïve CD4+ cells [2]; FIG. 5, retinoic acid added to TGF-β and azacytidine, ATRA 0.1-0.5 μM, 4 days, CD4+CD25+ cells): enhances FOXP3 expression

TGF-β
proliferation of stimulated cells ([1]; TGF-β 5 ng/ml, 6 days): hyperproliferative and expand markedly
expression of membrane-bound TGF-β (naïve CD4+ cells [3]): some T cells primed with TGF-β now expressed this cytokine on their cell surface; also recorded: some T cells contacted with TGF-β prior to stimulation now expressed this cytokine on their cell surface
FOXP3 expression (CD4+GFP-cells): induces FOXP3 expression
cells that acquired the CD45RO marker (naïve CD4+ cells [4]): 50%
cells which express FOXP3 (naïve CD4+ cells [2]; FIG. 1, 3/28 beads (1 bead per 10 T cells), 6 days, with vs without TGF-β): twice as many cells which express FOXP3
